Results published in patent publication US12540164B2, “Peptides for treatment and prevention of nonalcoholic fatty liver disease and fibrosis” (UNIVERSITE DE STRASBOURG, priority 2017, dated 2026).
Entries after “also recorded” stand apart in the source; their conditions may differ. Ends that are not written are not given here.

What was measured:
FATP2 = test: Expression levels of FATPs and FFARs in adipose tissue by real-time PCR after peptide injection; format: in vivo, mice; conditions: 11 days post single injection in subcutaneous adipose tissue, GAPDH reference, n=4 per group
Description: Mice were injected with a single dose of either scramble peptide or PATAD or ADPIF. 11 days post injection, the mice were euthanized and adipose tissue was sampled for RNA extraction followed by real-time PCR.
For this study, mice were on a C57/BL6 genetic background. All animals were housed in a temperature and humidity controlled facility, with a 12 h-light/12 h-dark cycle fed during the whole phase mice will be fed with a 60% high fat diet from Research Diets (D12492), and tap water will be provided ad libitum. Mice were fed and tested regularly for glucose tolerance test for their glucose tolerance and once they were glucose intolerant they were used for treatment.
All peptides were initially dissolved in DMSO and then diluted in sterile saline solution at a concentration of 10 ng/μL. 2.5 μL of each peptide (stapled or scrambled) were mixed and then injected directly in the subcutaneous adipose tissue in each mouse.

hepatic lipid droplets = test: AdipoRed staining of liver sections (lipid droplets); format: in vivo; conditions: 3 months after one unique injection in adipose tissue; DIO male mice; AdipoRed/DAPI cryosections
Description: Mice presented were euthanized and their plasma and organs were sampled for analysis. […] Cryosection of the livers were then stained with Adipored and DAPI to detect the level of lipid droplets. […] Hepatic function is assessed by two liver related strong biomarkers namely (AST (Aspartate Aminotransferase) and ALT (Alanine Aminotransferase)), whose levels increase proportionately with liver damage.
Livers were isolated and briefly washed in PBS buffer (pH 7.4). after weighing the dried liver, for the liver to body weight ratio, a sliced sample of the liver were then placed in 4% paraformaldehyde (in 0.1M sodium phosphate buffer, pH 7.2) for 15 min, washed in PBS and incubated in AdipoRed dye (1/25; Lonza, Switzerland) with 30 μM DAPI (Sigma-Aldrich, USA) for 15 minutes. After 3 washes with PBS samples were mounted on slides and pictures were taken using Zeiss microscope.

[1] = STAM model of non-alcoholic steatohepatitis: liver triglyceride content; format: in vivo; conditions: STAM NASH mice
Description: NASH was induced in 12 male mice by a single subcutaneous injection of 200 μg streptozotocin (STZ, Sigma-Aldrich, USA) solution 2 days after birth and feeding with high fat diet (HFD, 57 kcal % fat, Cat #HFD32, CLEA Japan, Inc., Japan) after 4 weeks of age.
The peptide was administered subcutaneously in the adipose tissue in a volume of […] per mouse.
The peptide was administered at a dose of 25 microgram (μg) per mouse once weekly.
Liver total lipid-extracts were obtained by Folch's method (Folch J. et al., J. Biol. Chem. 1957; 226: 497). Liver samples were homogenized in chloroform-methanol (2:1, v/v) and incubated overnight at room temperature. After washing with chloroform-methanol-water (8:4:3, v/v/v), the extracts were evaporated to dryness, and dissolved in isopropanol. Liver triglyceride content was measured by Triglyceride E-test (Wako Pure Chemical Industries, Ltd., Japan).
Six NASH mice were subcutaneously in the adipose tissue administered vehicle supplemented with ADPIF peptide at a dose of […] per mouse once weekly from 4 to 9 weeks of age.

## VECTTREKEVLASLDKAAFLTQLHS (not fully specified (bridges)) [ADPIF, R and S carry the stapling, preferably 2-(7-octenyl)arginine and 2-(4-pentenyl)serine]
FATP2
  FATP2 expression level in the adipose tissue: more active than PATAD peptide
Hepatic lipid droplets
  size of the hepatic lipid droplets: clearly showed a decrease; also recorded: global decrease in the sizes of the lipid droplets; also recorded: decrease in the diameter of the lipid droplets
[1]; 25 μg per mouse SC once weekly 4-9 wks of age, sacrifice 9 wks, n = 6
  Liver triglyceride (mean ± SD): 35.1 ± 17.8 mg/g liver
[1]; 25 μg per mouse SC once weekly 4-9 wks, Student's t-test
  liver triglyceride content compared with the Vehicle group: significant decrease
